# Test results from US20230071014A1 (priority 2020, published 2023).
# Tests used:
# SARS-CoV = conditions: cited from earlier work; for Inhibitory activity against SARS-CoV: Thorax 2004, 59: 252-256
# HIV-1 isolates = conditions: low passage clinical isolates, n=13; cited from earlier work
# SARS-CoV-2 = assay: Ritonavir reducing viral nucleic acid load in SARS-CoV-2 infected Vero E6 cells (qRT-PCR); assay type: cell-based, SARS-CoV-2 (nCoV-2019BetaCoV/Wuhan/WIV04/2019 strain); conditions: for Copy number of virus genome: Vero E6 cells, supernatant, vehicle 5762396
# Method: (1) Drug Treatment of Virus-Infected Cells
# Vero E6 cells (purchased from ATCC, Catalog No. 1586) was inoculated on a 24-well plate, cultured for 24 hours; then virus infection was carried out. Specifically, SARS-CoV-2 (2019-nCoV) virus (nCoV-2019BetaCoV/Wuhan/WIV04/2019 strain, provided by Wuhan Institute of Virology, Chinese Academy of Sciences) was diluted with 2% cell maintenance solution (formulation: FBS (purchased from Gibco company, Catalog No. 16000044) was added to MEM (purchased from Gibco, Catalog No. 10370021) at a volume ratio of 2%, thereby obtaining the 2% cell maintenance solution) to a corresponding concentration, and then added to a 24-well plate so that each well contained a viral load of 100TCID50. […] To the vehicle control group, the 2% cell maintenance solution without any test drugs was added.
# RNA extraction kit was purchased from Qiagen Company, Catalog No. 74106. The consumables (spin columns, RNase-free 2 ml collection tubes, etc.) and reagents (RLT, RW1, RPE, RNase-free water, etc.) involved in the following RNA extraction steps were part of the kit. The following extraction steps were recommended steps in the kit instruction.
# 1) 100 μL of the supernatant was taken from the tested plate and added to a nuclease-free EP tube, then 350 μL of Buffer RLT was added to each well and mixed by beating with a transfer liquid gun until complete lysis was achieved, then centrifugation was carried out to obtain a supernatant;
# 2) an equal volume of 70% ethanol was added to the supernatant obtained in 1) and mixed well;
# 3) the mixture solution obtained in 2) was transferred to a RNase-free spin column, and centrifuged at 12000 rpm for 15 seconds, and the waste liquid was discarded;
# 4) 700 μL of Buffer RW1 was added to the spin column, and centrifuged at 12000 rpm for 15 seconds to clean the spin column, and the waste liquid was discarded;
# 5) 500 μL of Buffer RPE was added to the spin column, and centrifuged at 12000 rpm for 15 seconds to clean the spin column, and the waste liquid was discarded;
# 6) 500 μL of Buffer RPE was added to the spin column, and centrifuged at 12000 rpm for 2 min to clean the spin column, the waste was discarded;
# 7) a new RNase-free 2 ml collection tube was used for replacement, centrifugation was carried out at 12000 rpm for 1 min, the spin column was dried, and then the spin column was transferred to a 1.5 ml collection tube in step 8);
# 8) a new 1.5 ml collection tube was used for replacement, in which the spin column dried in step 7) was placed, and […] of RNase-free water was added to the spin column, and centrifugation was carried out at 12000 rpm for 2 minutes, the obtained eluate contained the corresponding RNA, then the RNase inhibitor (purchased from NEB company, Catalog No. […]) was added, and Nano Drop (purchased from Thermo scientific, Nano Drop One) was used to detect each RNA concentration.
# (3) RNA Reverse Transcription
# In the experiment, the reverse transcription kit (PrimeScript™ RT reagent Kit with gDNA Eraser, Catalog No. RRO47Q) produced by TaKaRa was used for RNA reverse transcription.
# The steps were as follows.
# (1) Removal of gDNA: RNA samples of each experimental group were collected, 1 μg of each sample was taken for reverse transcription. First, 2 μl of 5×gDNA Eraser Buffer was added to the RNA sample of each experimental group, the reaction system was supplemented with RNase-free water to reach 10 μl, mixed well, and subjected to water bath at 42° C. for 2 min to remove the gDNA that might be present in the sample;
# (2) Reverse transcription: Appropriate amounts of enzyme, primer Mix and reaction buffer were added to the sample obtained in […], RNase-free water was added to supplement to reach a volume of 20 μl, the reaction was performed in a water bath at 37° C. for 15 minutes, and then in water bath at 85° C. for 5 seconds, to obtain cDNA by transcription. […]
SMILES,Inhibitory activity against SARS-CoV (SARS-CoV),EC50 (HIV-1 isolates),"Copy number of virus genome (SARS-CoV-2; 0.14 μM, 48 hours after infection)","Copy number of virus genome (SARS-CoV-2; 0.41 μM, 48 hours after infection)","Copy number of virus genome (SARS-CoV-2; 1.23 μM, 48 hours after infection)","Copy number of virus genome (SARS-CoV-2; 3.70 μM, 48 hours after infection)","Copy number of virus genome (SARS-CoV-2; 11.11 μM, 48 hours after infection)","Copy number of virus genome (SARS-CoV-2; 33.33 μM, 48 hours after infection)","Reduction of viral RNA load in Vero E6 cells infected by SARS-CoV-2 (SARS-CoV-2; 48 hours after infection, FIG. 1)","Inhibition of the replication of SARS-CoV-2 virus genome in the infected supernatant (SARS-CoV-2; at concentrations of 33 μM, 11.1 μM)",Effectiveness against SARS-CoV (SARS-CoV; Biochemical and Biophysical Research Communications 318 (2004) 719-725)
Cc1cccc(C)c1OCC(=O)N[C@@H](Cc1ccccc1)[C@@H](O)C[C@H](Cc1ccccc1)NC(=O)[C@H](C(C)C)N1CCCNC1=O [lopinavir],inhibits SARS-CoV,,,,,,,,,,
"CC(C)c1nc(CN(C)C(=O)N[C@H](C(=O)N[C@@H](Cc2ccccc2)C[C@H](O)[C@H](Cc2ccccc2)NC(=O)OCc2cncs2)C(C)C)cs1 [ritonavir, [5S-(5R,8R,10R,11R)]-10-hydroxy-2-methyl-5-(1-methylethyl)-1-[2-(1-methylethyl)-4-thiazolyl]-3,6-dioxo-8,11-bis(phenylmethyl)-2,4,7,12-tetraazatridecan-13-oic acid, 5-thiazolyl methyl ester]",does not have inhibitory activity,22 nM,6032699,5632446,5565821,6213595,2236225,1855399,inhibitory activity is dose-dependent,could effectively inhibit,ineffective
